{"source": "patent US20170226059A1", "about": "“APOE4-TARGETED THERAPUTICS THAT INCREASE SIRT1” (The Regents of the University of California, priority 2014, published 2017)", "key": {"p-APP": {"tested_on": "p-APP", "assay": "APP phosphorylation (p-APP) in cells transfected with ApoE4", "format": "cell-based", "procedure": "(§1) sAPPα or sAPPβ secreted into the cellular media are determined with sAPPα or sAPPβ AlphaLISA immunoassay kits (PerkinElmer) according to the manufacturer's protocol with some modifications. The standards, blanks, and media are diluted with the buffer provided in the kit and added to the plate. During the first incubation step, the analyte is captured either by an antibody recognizing the α-secretase cleavage site at sAPPα C-terminus (clone 2B3) or the sAPPβ C-terminus, and then by a second biotin-labeled antibody specific to the N-terminal common domain of sAPP. In the second incubation step, the biotinylated anti-analyte antibody is bound to the streptavidin-coated donor beads. At the end of this reaction, the plates are read on an EnSpire Alpha 2390 multilabel plate reader equipped with the AlphaScreen module. The Aβ1-42 or 1-40 are determined from media and/or cells using Life Science's sandwich ELISA kit. The levels of Aβ are quantified from a standard curve and normalized to total cellular protein (Spilman et al. (2014) Brain Res. 1551: 25-44; Theendakara et al. (2013) Proc. Natl. Acad. Sci. USA, 10(45): 18303-18308), Tau and p-tau are determined from cell extracts by a solid phase double antibody sandwich ELISA technology designed for quantitative determination of phospho-tau (Antibodies-Online). APP and p-APP are determined by the DuoSet IC ELISA (R&D Systems) to measure phosphorylated APP in cell lysates. An immobilized capture antibody specific for APP binds both phosphorylated and unphosphorylated APP. After unbound material is washed away, a biotinylated detection antibody is used to detect either APP or phosphor-APP utilizing a standard HRP format. Using these assay procedures we notice a significant increase in p-tau and p-APP levels in ApoE4-transfected cells. It can be determined whether the primary “hits” reverse the ApoE4-mediated APP-Thr phosphorylation and tau-phosphorylation."}, "p-tau [1]": {"tested_on": "p-tau", "assay": "tau phosphorylation (p-tau) in cells transfected with ApoE4", "format": "cell-based", "procedure": "(§2) sAPPα or sAPPβ secreted into the cellular media are determined with sAPPα or sAPPβ AlphaLISA immunoassay kits (PerkinElmer) according to the manufacturer's protocol with some modifications. The standards, blanks, and media are diluted with the buffer provided in the kit and added to the plate. During the first incubation step, the analyte is captured either by an antibody recognizing the α-secretase cleavage site at sAPPα C-terminus (clone 2B3) or the sAPPβ C-terminus, and then by a second biotin-labeled antibody specific to the N-terminal common domain of sAPP. In the second incubation step, the biotinylated anti-analyte antibody is bound to the streptavidin-coated donor beads. At the end of this reaction, the plates are read on an EnSpire Alpha 2390 multilabel plate reader equipped with the AlphaScreen module. The Aβ1-42 or 1-40 are determined from media and/or cells using Life Science's sandwich ELISA kit. The levels of Aβ are quantified from a standard curve and normalized to total cellular protein (Spilman et al. (2014) Brain Res. 1551: 25-44; Theendakara et al. (2013) Proc. Natl. Acad. Sci. USA, 10(45): 18303-18308), Tau and p-tau are determined from cell extracts by a solid phase double antibody sandwich ELISA technology designed for quantitative determination of phospho-tau (Antibodies-Online). […]"}, "SirT1": {"tested_on": "SirT1", "assay": "Primary AlphaLISA screening assay: SirT1 levels in N2a cells stably transfected with ApoE4", "format": "cell-based, mouse", "settings": "for Primary Assay (SrT1 increase): primary screening assay, ApoE4 cells; for SirT1 levels (dose-response): N2A neuroblastoma cells stably transfected with ApoE4", "procedure": "We have developed a primary screening assay that is HTS formatable; the assay would be done on N2a cells (mouse neuroblastoma cells) that have been stably transfected with ApoE3 and ApoE4. The cells are treated with drugs and the SirT1 levels are measured using the AlphaLISA assay that we have developed, e.g., as shown in FIG. 11. The illustrated AlphaLISA uses an antibody (Ab, E104, Abcam) that binds the C-terminus of SirT1 and is on the acceptor bead. The N-terminal Ab (D1D7, Abcam) is biotinylated and binds to the donor bead. For the primary assay the Neuro-2a (N2a) cells stably expressing similar levels of hApoE3 or hApoE4 are used. The primary assay can be done in triplicate. The N2a cells have reasonably good endogenous levels of APP thus avoiding the necessity of APP transfection. In general, for the assays N2a cells stably transfected with hApoE3 (E3) or hApoE4 (E4) are plated, e.g., at […] in 384-well plates in […] of growth medium and allowed to attached for 3 h. The E4 cells are treated with compounds overnight, E3 cells are controls. The following day, growth medium is removed and cells are lysed with AlphaLysis buffer complemented with protease and phosphatase inhibitors.\nThen, the AlphaLISA assay is run and molecules that can increase or reverse the SirT1 levels in ApoE4 cells are identified. A preliminary estimate, based on the initial screening which yielded two reproducible “hits” from a set of 1000 compounds, which is a 0.2% hit-rate. […] Our initial screening was done on a small library of about 1000 compounds. The assay is translatable to a HTS format."}, "obese mice": {"tested_on": "obese mice", "settings": "cited from earlier work"}, "sAPPα": {"tested_on": "sAPPα", "assay": "sAPPα levels in the presence of ApoE4 (AlphaLISA)", "format": "cell-based", "settings": "in the presence of ApoE4 (ApoE4-transfected cells)", "procedure": "as §1"}, "SirT1 mRNA": {"tested_on": "SirT1 mRNA", "assay": "SirT1 mRNA levels in A172 cells transfected with ApoE4 (quantitative real-time PCR)", "format": "cell-based, human", "settings": "A03 at 2 μM", "procedure": "Total RNA from transfected and drug-treated cells is isolated using the High Pure RNA isolation kit (Roche) and 1 μg of RNA is reverse-transcribed. To analyze the mRNA levels of SirT1, real time PCR can be performed on first-strand cDNAs as described (Theendakara et al. (2013) Proc. Natl. Acad. Sci. USA, 10(45): 18303-18308). The real-time PCR can be performed in Light Cycler 480-384-multiwell plates (Roche). Primers for SirT1 were designed using the Roche universal probe library system and the primers were synthesized by Integrated DNA Technology. Real-time PCR can be performed in SYBR Green master mix with the corresponding primer sets. The melting curves of PCR products are monitored to ensure that a single melting curve is obtained. For analysis of the real-time PCR data, δCt values of samples are normalized to values obtained for GAPDH, which is assayed simultaneously. Relative quantification using the DeltaDelta Ct method can be adopted to calculate the relative quantity of SirT1 levels."}, "[2]": {"assay": "Brain penetration after subcutaneous injection in mice", "format": "in vivo", "procedure": "Pharmacokinetic (PK) analysis for CNS exposure studies can consist of a time course design to collect heparinized plasma and brains (Korfmacher et al. (2001) Rapid Commun. Mass. Spectrom. 15(5): 335-340; Mei et al. (2006) AAPS J. 8(3): E493-500; Spilman et al. (2014) Brain Res. 1551: 25-44). Five non-transgenic mice can be used for the PK studies, and 1, 2, 4, 6, and 8 hour time points taken. Following oral, and either sc or ip administration of the molecules at 10 mg/kg, plasma and brain levels of the compounds can be determined by quantitative LC/MS/MS methodology. Plasma samples can be precipitated with acetonitrile:methanol (1:1) cocktail containing an internal standard. The brain samples can be homogenized directly in ethylacetate or extracted from 5M guanidine homogenates with liquid-liquid method. The resulting supernatant can be evaporated to dryness and subjected to the LC/MS/MS analysis. For each compound 3 mice can be used for this analysis. The brain-to-plasma ratios and brain levels can then be calculated to identify the best candidate(s) for further efficacy testing."}, "p-tau [3]": {"tested_on": "p-tau", "assay": "p-Tau levels in SHSY5Y", "format": "cell-based", "procedure": "as §2"}, "[4]": {"settings": "Phase1 human trials, up to 200 mgs bid; cited from earlier work"}, "[5]": {"settings": "rodents, high doses; cited from earlier work"}, "ADAM10 mRNA": {"tested_on": "ADAM10 mRNA", "assay": "ADAM10 mRNA levels / transcription in A172 cells transfected with ApoE4", "format": "cell-based, human", "settings": "A03 at 2 uM"}}, "note": "Entries after “also recorded” stand apart in the source; their conditions may differ. Where two headings read alike, the source gives them in different places.", "data": [{"compound": "CC(C)CC(=O)Nc1[nH]nc2c1CN(C(=O)C1CCN(C)CC1)C2(C)C", "note": "[PHA793887]", "values": [{"measurement": "APP phosphorylation (p-APP)", "setting": "p-APP", "value": "attenuated"}, {"measurement": "p-tau", "setting": "p-tau [1]", "value": "attenuated"}]}, {"compound": "C[C@H](N)CC(=O)OC(C)(C)Cc1ccc(Cl)cc1", "note": "[Compound 18, (S)-1-(4-chlorophenyl)-2-methylpropan-2-yl 3-aminobutanoate]", "values": [{"measurement": "Primary Assay (SrT1 increase)", "setting": "SirT1", "value": "I (activity I < 10%)"}]}, {"compound": "O=C(Nc1ccccc1-c1cn2c(CN3CCNCC3)csc2n1)c1cnc2ccccc2n1", "note": "[SRT1720]", "values": [{"measurement": "extension of lifespan", "setting": "obese mice", "value": 44, "unit": "%"}]}, {"compound": "CC(C)(Cc1ccc(Cl)cc1)OC(=O)CN", "note": "[Compound 7, 1-(4-chlorophenyl)-2-methylpropan-2-yl 2-aminoethanoate]", "values": [{"measurement": "Primary Assay (SrT1 increase)", "setting": "SirT1", "value": "II (activity II 10-30%)"}]}, {"compound": "CCC(C)C(N)C(=O)OC(C)(C)Cc1ccc(Cl)cc1", "note": "(stereo not drawn) [Compound 11, 1-(4-chlorophenyl)-2-methylpropan-2-yl 2-amino-3-methylpentanoate]", "values": [{"measurement": "Primary Assay (SrT1 increase)", "setting": "SirT1", "value": "II (activity II 10-30%)"}]}, {"compound": "CNC(C)C(=O)OC(C)(C)Cc1ccc(Cl)cc1", "note": "(stereo not drawn) [Compound 23, 1-(4-chlorophenyl)-2-methylpropan-2-yl 2-(methylamino)propanoate]", "values": [{"measurement": "Primary Assay (SrT1 increase)", "setting": "SirT1", "value": "I (activity I < 10%)"}]}, {"compound": "Cc1c[nH]c(-c2cnc(NCCNc3ccc(C#N)cn3)nc2-c2ccc(Cl)cc2Cl)n1", "note": "[CHIR99021]", "values": [{"measurement": "sAPPα levels", "setting": "sAPPα", "value": "reversed the reduction in sAPPα"}, {"measurement": "sAPPα levels", "setting": "sAPPα; listed as CHIR", "value": "restores sAPPα levels"}, {"measurement": "APP phosphorylation (p-APP)", "setting": "p-APP", "value": "reversed"}, {"measurement": "APP phosphorylation (p-APP)", "setting": "p-APP; listed as CHIR", "value": "reduces APP phosphorylation"}]}, {"compound": "CC(N)C(=O)OC(C)(C)Cc1ccc(Cl)cc1", "note": "(stereo not drawn) [Compound A03, 1-(4-chlorophenyl)-2-methylpropan-2-yl 2-aminopropanoate]", "values": [{"measurement": "EC20 for SirT1 enhancement", "setting": "SirT1; N2A cells stably transfected with ApoE4", "value": 200, "unit": "nM"}, {"measurement": "EC50", "setting": "SirT1; N2A cells stably transfected with ApoE4, read-out: EC50 for SirT1 enhancement", "value": "~2000", "unit": "nM"}, {"measurement": "SirT1 levels (dose-response)", "setting": "SirT1", "value": "generated a SirT1 dose-response; also recorded: SirT1 levels increasing with dose"}, {"measurement": "SirT1 levels (dose-response)", "setting": "SirT1; listed as Alaproclate", "value": "increases"}, {"measurement": "SirT1 levels (dose-response)", "setting": "SirT1; listed as alaproclate", "value": "increase SirT1 levels in a dose responsive manner"}, {"measurement": "mRNA levels of SirT1", "setting": "SirT1 mRNA", "value": "normalized; also recorded: normalize the mRNA levels for SirT1"}, {"measurement": "mRNA levels of SirT1", "setting": "SirT1 mRNA; listed as Alaproclate", "value": "increased"}, {"measurement": "brain penetration / brain permeability", "setting": "[2]", "value": "excellent brain penetration"}, {"measurement": "brain penetration / brain permeability", "setting": "[2]; listed as alaproclate", "value": "highly brain permeable"}, {"measurement": "Kp", "setting": "[2]; mouse, brain and plasma, sc, 10 mg/kg, read-out: brain/plasma (B/P)", "value": "~10"}, {"measurement": "sAPPα levels", "setting": "sAPPα; listed as Alaproclate", "value": "increases"}, {"measurement": "p-Tau levels", "setting": "p-tau [3]", "value": "decreased"}, {"measurement": "adverse events", "setting": "[4]", "value": "no observed adverse events"}, {"measurement": "global scores", "setting": "[4]", "value": "some improvements in global scores"}, {"measurement": "liver toxicity", "setting": "[5]", "value": "observed liver toxicity"}, {"measurement": "ADAM10 mRNA levels / transcription", "setting": "ADAM10 mRNA", "value": "normalized; also recorded: normalization of ADAM10 transcription"}, {"measurement": "ADAM10 mRNA levels / transcription", "setting": "ADAM10 mRNA; listed as Alaproclate", "value": "increased"}]}, {"compound": "Cc1ccc(CC(C)(C)OC(=O)C(C)N)cc1", "note": "(stereo not drawn) [Compound 6, 2-methyl-1-p-tolylpropan-2-yl 2-aminopropanoate]", "values": [{"measurement": "Primary Assay (SrT1 increase)", "setting": "SirT1", "value": "II (activity II 10-30%)"}]}, {"compound": "CC(C)(Cc1ccc(Cl)cc1)OC(=O)C(N)Cc1ccccc1", "note": "(stereo not drawn) [Compound 2, 1-(4-chlorophenyl)-2-methylpropan-2-yl 2-amino-3-phenylpropanoate]", "values": [{"measurement": "Primary Assay (SrT1 increase)", "setting": "SirT1", "value": "I (activity I < 10%)"}]}]}
